# Where a SMILES comes first, the peptide text is derived from it. The star is where a group is joined. Palmitoyl = CCCCCCCCCCCCCCCC(=O)*; Myristoyl = CCCCCCCCCCCCCC(=O)*
# How the values were obtained:
# Assay type in all cases: cell-based
# [1] = system: Pseudomonas aeruginosa (ATCC 9027); conditions: ATCC 9027, 24 h
# [2] = system: Pseudomonas aeruginosa (ATCC 9027); conditions: ATCC 9027, 18 h
# Summary of the method: (§1)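 Lowest lipopeptide concentration (μg/mL) with no observable growth gave the MIC, alongside MBC/MFC, by CLSI microbroth dilution. Fungi: Sabouraud dextrose broth, 10^3 cfu/mL start, 25°C for 48 h; bacteria: MH broth, 10^5 cfu/mL, 37°C for 18 h. Run in triplicate, three separate days.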
# [3] = system: Aspergillus brasiliensis (ATCC 16404); conditions: ATCC 16404, 48 h
# Summary of the method: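 CLSI broth microdilution: bacteria in Mueller-Hinton broth at 10^5 cfu/mL inoculum, 18 h at 37°C; fungi in Sabouraud Dextrose broth at 10^3 cfu/mL, 48 h at 25°C. MIC (μg/mL) is the lowest lipopeptide concentration inhibiting visible growth; triplicate on three days.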
# [4] = system: Proteus vulgaris (PCM 2668); conditions: 18 h
# Summary of the method: as §1
# [5] = system: Escherichia coli (ATCC 25922); conditions: for MBC Escherichia coli, lipopeptides without TFA counter ion / MIC Escherichia coli / MIC Escherichia coli, lipopeptides without TFA counter ion: ATCC 25922, 18 h; for MBC Escherichia coli: ATCC 25922, 24 h
# Summary of the method: as §1
# [6] = system: Staphylococcus aureus (ATCC 25923); conditions: for MBC Staphylococcus aureus, lipopeptides without TFA counter ion / MIC Staphylococcus aureus / MIC Staphylococcus aureus, lipopeptides without TFA counter ion: ATCC 25923, 18 h; for MBC Staphylococcus aureus: ATCC 25923, 24 h
# Summary of the method: as §1
# [7] = system: Bacillus subtilis (ATCC 6633); conditions: for MIC Bacillus subtillis: ATCC 6633, 18 h; for MBC Bacillus subtillis: ATCC 6633, 24 h
# Summary of the method: as §1
# [8] = system: Enterococcus faecalis (ATCC 29212); conditions: for MBC Enterococcus fecalis, lipopeptides without TFA counter ion / MIC Enterococcus fecalis / MIC Enterococcus fecalis, lipopeptides without TFA counter ion: ATCC 29212, 18 h; for MBC Enterococcus fecalis: ATCC 29212, 24 h
# Summary of the method: as §1
# [9] = system: Staphylococcus epidermidis (PCM 2118); conditions: for MIC Staphylococcus epidermidis: PCM 2118, 18 h; for MBC Staphylococcus epidermidis: PCM 2118, 24 h
# Summary of the method: as §1
# [10] = system: Klebsiella pneumoniae (ATCC 700603); conditions: for MBC Klebsiella pneumoniae, lipopeptides without TFA counter ion / MIC Klebsiella pneumoniae / MIC Klebsiella pneumoniae, lipopeptides without TFA counter ion: ATCC 700603, 18 h; for MBC Klebsiella pneumoniae: ATCC 700603, 24 h
# Summary of the method: as §1
# [11] = system: Candida tropicalis (PCM 2681); conditions: PCM 2681, 48 h
# Summary of the method: as §1
# [12] = system: Candida albicans (ATCC 10231); conditions: ATCC 10231, 48 h
# Summary of the method: as §1
# [13] = system: Proteus vulgaris (PCM 2668); conditions: 24 h
# [14] = system: Candida albicans (ATCC 10231)
# [15] = system: human red blood cells; conditions: 1 h
# Summary of the method: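 Washed donor erythrocytes (4% v/v in PBS, EDTA-anticoagulated) incubated with graded lipopeptide concentrations for 1 h at 37 °C; hemoglobin release read at 550 nm in supernatants. Scaled between 0.1% Triton X-100 (100%) and PBS (0%); MHC is the lowest concentration giving 10% hemolysis.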
MIC Pseudomonas aeruginosa [2],MIC Aspergillus brasiliensis [3],MIC Proteus vulgaris [4],MIC Escherichia coli [5],MIC Staphylococcus aureus [6],MIC Bacillus subtillis [7],MIC Enterococcus fecalis [8],MIC Staphylococcus epidermidis [9],Structure (SMILES),MBC Pseudomonas aeruginosa [1],MFC Aspergillus brasiliensis [3],"MBC Escherichia coli, lipopeptides without TFA counter ion [5]","MIC Escherichia coli, lipopeptides without TFA counter ion [5]",MBC Escherichia coli [5],"MBC Staphylococcus aureus, lipopeptides without TFA counter ion [6]","MIC Staphylococcus aureus, lipopeptides without TFA counter ion [6]",MBC Staphylococcus aureus [6],MBC Bacillus subtillis [7],"MBC Enterococcus fecalis, lipopeptides without TFA counter ion [8]","MIC Enterococcus fecalis, lipopeptides without TFA counter ion [8]",MBC Enterococcus fecalis [8],also measured
128 µg/mL,512 µg/mL,>512 µg/mL,128 µg/mL,64 µg/mL,32 µg/mL,64 µg/mL,16 µg/mL,CCCCCCCCCCCCCC(=O)N[C@@H](CCCCN)C(N)=O [C14-K-NH2],1000 µg/mL,512 µg/mL,128 µg/mL,64 µg/mL,128 µg/mL,64 µg/mL,64 µg/mL,64 µg/mL,32 µg/mL,64 µg/mL,64 µg/mL,64 µg/mL,"MBC Staphylococcus epidermidis [9]: 16 µg/mL; MBC Klebsiella pneumoniae, lipopeptides without TFA counter ion [10]: 512 µg/mL; MIC Klebsiella pneumoniae [10]: 64 µg/mL; MIC Klebsiella pneumoniae, lipopeptides without TFA counter ion [10]: 64 µg/mL; MBC Klebsiella pneumoniae [10]: 512 µg/mL; MFC Candida tropicalis [11]: >512 µg/mL; MIC Candida tropicalis [11]: >512 µg/mL; MFC Candida albicans [12]: 512 µg/mL; MIC Candida albicans [12]: 512 µg/mL; MIC Candida albicans, lipopeptides without TFA counter ion [12]: 512 µg/mL; MBC Proteus vulgaris [13]: >512 µg/mL; MFC Candida albicans, lipopeptides without TFA counter ion [14]: 512 µg/mL; Hemolysis HC10 (MHC), concentration of lipopeptide inducing 10% of hemolysis [15]: 512 µg/mL"
256 µg/mL,512 µg/mL,>512 µg/mL,256 µg/mL,8 µg/mL,4 µg/mL,16 µg/mL,4 µg/mL,CCCCCCCCCCCCCCCC(=O)N[C@@H](CCCCN)C(=O)NCC(N)=O [C16-KG-NH2] (Palmitoyl-Lys-Gly-NH2),1000 µg/mL,512 µg/mL,256 µg/mL,256 µg/mL,256 µg/mL,4 µg/mL,4 µg/mL,8 µg/mL,4 µg/mL,8 µg/mL,4 µg/mL,16 µg/mL,"MBC Staphylococcus epidermidis [9]: 4 µg/mL; MBC Klebsiella pneumoniae, lipopeptides without TFA counter ion [10]: 256 µg/mL; MIC Klebsiella pneumoniae [10]: 128 µg/mL; MIC Klebsiella pneumoniae, lipopeptides without TFA counter ion [10]: 128 µg/mL; MBC Klebsiella pneumoniae [10]: 256 µg/mL; MFC Candida tropicalis [11]: 512 µg/mL; MIC Candida tropicalis [11]: 256 µg/mL; MFC Candida albicans [12]: 128 µg/mL; MIC Candida albicans [12]: 128 µg/mL; MIC Candida albicans, lipopeptides without TFA counter ion [12]: 128 µg/mL; MBC Proteus vulgaris [13]: >512 µg/mL; MFC Candida albicans, lipopeptides without TFA counter ion [14]: 128 µg/mL; Hemolysis HC10 (MHC), concentration of lipopeptide inducing 10% of hemolysis [15]: 256 µg/mL"
32 µg/mL,256 µg/mL,>512 µg/mL,64 µg/mL,64 µg/mL,4 µg/mL,32 µg/mL,4 µg/mL,CCCCCCCCCCCCCC(=O)N[C@@H](CCCCN)C(=O)N[C@@H](CCCCN)C(N)=O [C14-KK-NH2],64 µg/mL,256 µg/mL,64 µg/mL,32 µg/mL,128 µg/mL,64 µg/mL,32 µg/mL,64 µg/mL,4 µg/mL,32 µg/mL,32 µg/mL,64 µg/mL,"MBC Staphylococcus epidermidis [9]: 4 µg/mL; MBC Klebsiella pneumoniae, lipopeptides without TFA counter ion [10]: 128 µg/mL; MIC Klebsiella pneumoniae [10]: 128 µg/mL; MIC Klebsiella pneumoniae, lipopeptides without TFA counter ion [10]: 128 µg/mL; MBC Klebsiella pneumoniae [10]: 128 µg/mL; MFC Candida tropicalis [11]: 256 µg/mL; MIC Candida tropicalis [11]: 256 µg/mL; MFC Candida albicans [12]: 128 µg/mL; MIC Candida albicans [12]: 128 µg/mL; MIC Candida albicans, lipopeptides without TFA counter ion [12]: 256 µg/mL; MBC Proteus vulgaris [13]: >512 µg/mL; MFC Candida albicans, lipopeptides without TFA counter ion [14]: 256 µg/mL; Hemolysis HC10 (MHC), concentration of lipopeptide inducing 10% of hemolysis [15]: 128 µg/mL"
64 µg/mL,128 µg/mL,>512 µg/mL,128 µg/mL,64 µg/mL,16 µg/mL,64 µg/mL,32 µg/mL,CCCCCCCCCCCCCC(=O)N[C@@H](CCCCN)C(=O)NCC(=O)N[C@@H](CCCCN)C(=O)NCC(N)=O [C14-KGKG-NH2] (Myristoyl-KGKG-NH2),128 µg/mL,128 µg/mL,128 µg/mL,128 µg/mL,128 µg/mL,64 µg/mL,64 µg/mL,128 µg/mL,16 µg/mL,64 µg/mL,64 µg/mL,64 µg/mL,"MBC Staphylococcus epidermidis [9]: 32 µg/mL; MBC Klebsiella pneumoniae, lipopeptides without TFA counter ion [10]: 128 µg/mL; MIC Klebsiella pneumoniae [10]: 128 µg/mL; MIC Klebsiella pneumoniae, lipopeptides without TFA counter ion [10]: 128 µg/mL; MBC Klebsiella pneumoniae [10]: 128 µg/mL; MFC Candida tropicalis [11]: 512 µg/mL; MIC Candida tropicalis [11]: 512 µg/mL; MFC Candida albicans [12]: 128 µg/mL; MIC Candida albicans [12]: 128 µg/mL; MIC Candida albicans, lipopeptides without TFA counter ion [12]: 256 µg/mL; MBC Proteus vulgaris [13]: >512 µg/mL; MFC Candida albicans, lipopeptides without TFA counter ion [14]: 256 µg/mL; Hemolysis HC10 (MHC), concentration of lipopeptide inducing 10% of hemolysis [15]: 512 µg/mL"
